Measured values from publication PMC5607274, “An iterative compound screening contest method for identifying target protein inhibitors using the tyrosine-protein kinase Yes” (Scientific Reports, 2017).

Biological target: T1, human recombinant Yes [a.a. 2–543 (end)] (Homo sapiens, UniProt P07947)
T1 construct: human recombinant Yes [a.a; 2–543 (end)]; purchased BPS Bioscience 40488
Assay: ADP-Glo kinase assay, inhibition rates of Yes phosphorylation activity (first and second screening)
Format: biochemical
Settings: 10 μmol L−1 compound; for First screening IR (inhibition rate): mean of n = 4 wells; for Second screening IR (inhibition rate): dissolved from fresh powder, n = 4
Outline: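 ADP-Glo luminescence measured inhibition of human recombinant Yes (a.a. 2–543) phosphorylation activity. In the first screen, each compound ran in 4 wells and inhibition rates were averaged. The second screen retested hits as compounds dissolved from fresh powder.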

T1 sequence (P07947 2-543): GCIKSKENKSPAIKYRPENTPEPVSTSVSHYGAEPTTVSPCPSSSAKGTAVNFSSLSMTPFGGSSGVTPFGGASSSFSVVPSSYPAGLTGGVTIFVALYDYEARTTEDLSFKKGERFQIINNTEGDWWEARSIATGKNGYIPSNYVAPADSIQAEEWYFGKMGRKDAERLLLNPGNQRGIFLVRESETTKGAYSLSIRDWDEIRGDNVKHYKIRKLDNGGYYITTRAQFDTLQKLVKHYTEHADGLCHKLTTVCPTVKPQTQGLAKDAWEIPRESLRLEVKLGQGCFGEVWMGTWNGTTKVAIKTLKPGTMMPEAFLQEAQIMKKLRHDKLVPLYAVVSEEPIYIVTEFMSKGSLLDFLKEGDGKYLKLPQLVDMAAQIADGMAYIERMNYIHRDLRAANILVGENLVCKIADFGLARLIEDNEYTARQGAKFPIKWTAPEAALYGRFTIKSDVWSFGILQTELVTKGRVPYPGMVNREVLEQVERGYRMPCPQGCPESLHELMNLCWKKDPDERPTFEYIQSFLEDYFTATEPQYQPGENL

Compound	First screening IR (inhibition rate) [%]	Second screening IR (inhibition rate) [%]
CCN(CC)S(=O)(=O)c1c[nH]c(C(=O)NCc2nc(C)cs2)c1 [Compound Z225896678]	9	
CC(c1ccc(F)c(F)c1)N(C)c1ncnc2c1cnn2C (centres unmarked) [Compound Z328694928]	-1	
CC(C)c1ccc2cc(C(=O)NCCN3CCS(=O)(=O)CC3)[nH]c2c1 [Compound Z649805708]	-31	
CC(NC(=O)Nc1ccc(F)cc1F)c1ccc(-n2cncn2)cc1 (centres unmarked) [Compound Z86212654]	-3	
CCCCn1c(CN2CCN(c3ncccn3)CC2)nc2c1c(=O)[nH]c(=O)n2Cc1ccccc1 [Compound Z104925552]	9	
CCN(CC)CCNC(=O)c1ccc(NC(=O)C2CCN(c3ncnc4sc(C)c(C)c34)CC2)cc1 [Compound Z79604730]	-1	
COC1CCC(N(C)c2ncc(C(=O)N3CCOCC3)cc2Cl)CC1 (centres unmarked) [Compound Z1212734184]	-2	
Cc1ccc(Nc2ncnc3sc4c(c23)CCCC4)c(O)c1 [Compound Z85929120]	2	
CCS(=O)(=O)c1ccc(S(=O)(=O)N2CCCSCC2)cc1 [Compound Z736543988]	32	
CN(CCCc1nc2ccccc2[nH]1)C(=O)c1ccc(O)cc1F [Compound Z1614685203]	9	
CCN(CC)c1ccc2c(c1)OC(=O)N(c1ccc(Cl)c(Cl)c1)P2(=Nc1ccc(C)cc1)N(CC)CC (centres unmarked) [Compound Z56783141]	-2	
COc1ccc(Cl)cc1NC(=O)CN(C)c1nc(CN2CCOCC2)nc2sc3c(c12)CCC(C)C3 (centres unmarked) [Compound Z31158506]	7	
Fc1cc(NCc2cn[nH]c2-c2cccnc2)ccc1-n1ccnc1 [Compound Z1462562385]	10	
COc1cc(C(=O)Nc2ccc3c(c2)NC(=O)C(C)O3)cc2c1OC(C)C2 (centres unmarked) [Compound Z167364352]	6	
CCc1cc(N2CCC(NCc3c(Cl)cccc3N3CCCC3)CC2)ncn1 [Compound Z1549038619]	0	
Cc1noc(C)c1COC(=O)c1ccc2[nH]c(C)c(C)c2c1 [Compound Z17094388]	4	
Cc1ccc(-c2nn(-c3ccc(F)cc3)cc2C(=O)N(C)CC(=O)Nc2ccc(N3CCOCC3)cc2)cc1 [Compound Z26593504]	46	
CC(C)c1nc2n(n1)CC(NCc1cc(-c3cccs3)on1)CC2 (centres unmarked) [Compound Z1139411735]	-5	
Cc1c(C(=O)NCCSc2ccc(Br)cc2)[nH]c2c1C(=O)CCC2 [Compound Z51996046]	8	
CN(C)C1(CNC(=O)CNC(=O)c2cc(F)cc(F)c2)CCOCC1 [Compound Z1199845522]	6	
CS(=O)(=O)C1CSCCN1S(=O)(=O)c1ccc(Br)cc1Cl (centres unmarked) [Compound Z1274438175]	-18	
c1cc(-c2nc3c(c(N4CCCC(N5CCCC5)C4)n2)CCC3)ccn1 (centres unmarked) [Compound Z1070397714]	56	
Cc1ccc(-n2c(C)c(C=O)c3c2CCc2cn(-c4ccccc4)nc2-3)cc1 [Compound Z56788048]	-7	
CS1(=O)=NC=C(C(=O)O)C=C1 (centres unmarked) [Compound Z1262519784]	52	

Compound	First screening IR (inhibition rate) [%]	Second screening IR (inhibition rate) [%]
CN(Cc1ccccc1)c1nc(CN2CCOCC2)nc2sc3c(c12)CCC3 [Compound Z31196583]	8	
CNS(=O)(=O)c1cccc(S(=O)(=O)N(C)C)c1 [Compound Z285953204]	2	
COc1ccc(-c2cc(NC(=O)C3CCC(=O)N3)ccc2OC(F)F)cc1 (centres unmarked) [Compound Z70775126]	-6	
Cc1sc2nc(-c3cccc(NC(=O)CN4CCN(CC5CCCO5)CC4)c3)[nH]c(=O)c2c1C (centres unmarked) [Compound Z46510296]	2	
COc1ccc(C(=O)N[C@@H]2C(=O)Nc3c(c(C)nn3C)[C@H]2c2cccc(C(F)(F)F)c2)cc1OC [Compound Z98361471]	17	
N#CCCn1ncc2c(N3CCN(Cc4ccco4)CC3)ncnc21 [Compound Z990852254]	3	
Cc1ccn2cc(C(=O)NCCCn3nc(C)cc3C)nc2c1 [Compound Z137367324]	2	
CCCn1c(CSc2ncn(-c3ccccc3)n2)nc2cc(S(=O)(=O)N(C)C)ccc21 [Compound Z227429876]	-10	
CC(C)n1ncc2c(C(=O)N3CCN(CC(=O)N4CCOCC4)CC3)cc(-c3ccccc3)nc21 [Compound Z73457343]	7	
Cc1ccc2nc(-c3ccc(Nc4nnc(Cc5csc(C)n5)s4)cc3)sc2c1 [Compound Z119992430]	40	
Cc1onc(-c2c(F)cccc2Cl)c1C(=O)OCc1nc(-c2cccs2)no1 [Compound Z51122297]	20	
Brc1ccc(/C=C2/CCCc3c2nc2ncnn2c3-c2ccc(Br)cc2)cc1 [Compound Z56784274]	3	
CC1CN(CC2CCN(CC(=O)Nc3cc(Cl)ccc3Cl)CC2)CC(C)O1 (centres unmarked) [Compound Z1033314424]	2	
Cc1ccc(C)c(-n2nnnc2SC(C)C(=O)Nc2ccc(Cl)cn2)c1 (centres unmarked) [Compound Z21689617]	8	
CCCCS(=O)(=O)C1CCS(=O)(=O)C1 (centres unmarked) [Compound Z56757812]	-9	
CC(Oc1ccc(N(C)C(N)=O)cc1)c1nnc(-c2cccc(Cl)c2)o1 (centres unmarked) [Compound Z1329202056]	-16	
CC(C)n1ncc2cc(C(=O)NCc3ccc(-n4ccnc4)c(F)c3)cnc21 [Compound Z826159196]	9	
Cn1ncc2c(NCCOc3ccc4c(c3)OCO4)ncnc21 [Compound Z645593692]	-38	
O=C(CCc1cnn(-c2ccccc2)c1)Nc1nc2c(s1)CCCC2 [Compound Z131246512]	-5	
CCOC(=O)c1sc2nc(CN3CCOCC3)nc(Nc3ccc(N4CCCCC4)nc3)c2c1C [Compound Z238683848]	37	
CCCCCn1c(=O)c2ccccc2n2c(SCC(=O)NC(=O)NC3CCCC(C)C3C)nnc12 (centres unmarked) [Compound Z17895832]	-5	
COc1cc(/C=N/Nc2ncnc3sc(-c4ccccc4)cc23)cc(OC)c1OC [Compound Z49894862]	34	22
O=C(CN1CCOCC1)N1CCN(Cn2nc(-c3ccccc3)n(-c3ccc(F)cc3)c2=S)CC1 [Compound Z238616284]	-5	

Second part, the molecule after the results:

First screening IR (inhibition rate) [%]	Second screening IR (inhibition rate) [%]	Compound
13		Cc1nc2ccc(NC(=O)c3cc4ccccc4oc3=O)cc2s1 [Compound Z28296849]
55		Cn1c(C(=O)Nc2ccc(NC(=O)c3ccco3)c(Cl)c2)cc2ccccc21 [Compound Z751335838]
58	-7	O=C(/C=C/c1cccs1)Nc1cc(-c2cccc([N+](=O)[O-])c2)sc1C(=O)O [Compound Z204342158]
4		Cc1ccc(Cn2c(=O)c3ccccc3n3c(CCC(=O)NCCN(Cc4ccco4)C(C)C)nnc23)cc1 [Compound Z1169067782]
-14		NC(=O)Nc1ccc(NC(=O)Cc2csc(Cc3ccccc3)n2)cc1 [Compound Z383135670]
64		CC(C(=O)NC(c1ccccc1)c1ccccc1)N1CCN(c2ncnc3c2cnn3C)CC1 (centres unmarked) [Compound Z238831180]
-14		Cc1ccnc(NC(=O)c2cc(-c3ccc(F)cc3)nc3onc(C)c23)c1 [Compound Z219812624]
-3		CC(c1ccccc1)n1c(NC(=O)c2ccccc2)c(S(=O)(=O)c2ccccc2)c2nc3ccccc3nc21 (centres unmarked) [Compound Z56877281]
6		CCn1ncc2c(C(=O)NCc3cccc(OC)c3)cc(-c3ccccc3)nc21 [Compound Z224328394]
-3		CSCCC(NC(=O)c1ccco1)C(=O)NCc1ccc(CN(C)C)cc1 (centres unmarked) [Compound Z102556578]
-18		COc1cccc(-c2cc(-c3ccc(C)cc3)c3ccccc3n2)c1 [Compound Z1664164245]
-4		COc1ccc(-c2cc(CSCC(=O)Nc3ccc4c(c3)CCC4)on2)cc1 [Compound Z317186982]
5		Cc1cc(NC(=O)c2ccn(-c3ccccc3)n2)n(CCC#N)n1 [Compound Z826713438]
23		COc1ccc(C)cc1N1CC(C(=O)Nc2ccc3c(ccn3CCN3CCOCC3)c2)CC1=O (centres unmarked) [Compound Z961849222]
0		NC(=O)Nc1ccc(-c2csc(CCc3ccccc3)n2)cc1 [Compound Z785638578]
-1		Cn1c(C(=O)Oc2ccc(NC(=O)c3ccco3)cc2)cc2ccccc21 [Compound Z762214972]
3		Cc1cc(C)n(C(C)C(=O)Nc2ccc(NC(=O)C(C)(C)C)cc2Cl)n1 (centres unmarked) [Compound Z850607168]
63	-5	O=C1CCc2cc(OC(=O)c3cn(-c4ccccc4)nc3-c3cccs3)ccc2N1 [Compound Z764721614]
3		Cl.Oc1ccccc1-c1cc(-c2ccccc2)c2cc(Cl)ccc2n1 [Compound Z48950876]
9		Cn1c(O)c(N=NC(=O)c2ccc(COc3ccccc3-c3ccccc3)cc2)c2ccccc21 [Compound Z44853786]
28		Cc1ccc(CSCC(=O)NC(Cc2ncc[nH]2)c2ccccc2)cc1 (centres unmarked) [Compound Z230096354]
